Reference: ChEMBL document CHEMBL1799913, “A combined spectroscopic and crystallographic approach to probing drug-human serum albumin interactions” (Bioorg Med Chem, 2010)
Values after ≈ are worked out from the molar mass of the structure shown.

Assays:
[1] = molecular target: T1, human serum albumin site 1 (Homo sapiens, UniProt P02768); assay: in vitro; details: fatty acid-free human serum albumin, pH 7.4, probe warfarin
Description: Displacement of radiolabeled warfarin from fatty acid-free human serum albumin site 1 in phosphate buffer at pH 7.4 at 12 uM by fluorescence spectroscopy

[2] = molecular target: T2, human serum albumin site 2 (Homo sapiens, UniProt P02768); assay: in vitro; details: fatty acid-free human serum albumin, pH 7.4, probe dansylsarcosine
T2 sequence (P02768 whole entry): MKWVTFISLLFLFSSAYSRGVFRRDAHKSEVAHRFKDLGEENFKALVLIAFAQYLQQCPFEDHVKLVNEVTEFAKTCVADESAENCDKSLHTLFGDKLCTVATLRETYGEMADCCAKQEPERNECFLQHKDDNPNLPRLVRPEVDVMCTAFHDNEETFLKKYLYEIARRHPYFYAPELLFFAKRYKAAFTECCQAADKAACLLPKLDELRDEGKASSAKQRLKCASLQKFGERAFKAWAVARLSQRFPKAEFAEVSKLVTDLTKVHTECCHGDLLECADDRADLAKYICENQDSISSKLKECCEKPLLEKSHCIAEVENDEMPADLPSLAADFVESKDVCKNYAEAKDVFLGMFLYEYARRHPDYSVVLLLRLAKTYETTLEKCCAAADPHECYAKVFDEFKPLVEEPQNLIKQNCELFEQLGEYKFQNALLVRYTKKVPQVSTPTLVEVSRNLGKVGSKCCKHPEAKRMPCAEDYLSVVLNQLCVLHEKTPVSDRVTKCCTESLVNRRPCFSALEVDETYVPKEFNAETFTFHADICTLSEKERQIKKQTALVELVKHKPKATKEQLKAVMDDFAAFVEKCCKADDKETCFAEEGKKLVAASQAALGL
Description: Displacement of radiolabeled dansylsarcosine from fatty acid-free human serum albumin site 2 in phosphate buffer at pH 7.4 at 12 uM by fluorescence spectroscopy

[3] = molecular target: T1, human serum albumin site 1; assay: in vitro; details: fatty acid containing human serum albumin, pH 7.4, probe warfarin
Description: Displacement of radiolabeled warfarin from fatty acid containing human serum albumin site 1 in phosphate buffer at pH 7.4 at 12 uM by fluorescence spectroscopy

[4] = molecular target: T2, human serum albumin site 2; assay: in vitro; details: fatty acid containing human serum albumin, pH 7.4, probe dansylsarcosine
Description: Displacement of radiolabeled dansylsarcosine from fatty acid containing human serum albumin site 2 in phosphate buffer at pH 7.4 at 12 uM by fluorescence spectroscopy

physchem = details: phosphate buffer, pH 7.4
Description: Aqueous solubility of the compound in phosphate buffer solution of pH 7.4 after 24 hrs by LC-UV analysis

[5] = Octanol-buffer partition coefficient, log D of the compound at pH 7.4 by shake-flask method
[6] = Dissociation constant, pKa of the compound by spectrophotometric titration; format: physicochemical
[7] = Lipophilicity, log P of the compound in octanol
Albumin [8] = molecular target: T3, Albumin (Homo sapiens, UniProt P02768); details: isolated protein
T3 sequence (P02768 whole entry): as above
Description: Binding affinity to fatty acid-free human serum albumin by equilibrium dialysis

Albumin [9] = molecular target: T3, Albumin; details: isolated protein; remark: listed apart in the source
Description: Binding affinity to fatty acid-containing human serum albumin by equilibrium dialysis

Albumin [10] = molecular target: T3, Albumin; assay: Binding affinity to human serum albumin by equilibrium dialysis; format: ADME; details: isolated protein
[11] = molecular target: T1, human serum albumin site 1; assay: in vitro; details: pH 7.4, probe warfarin
Description: Displacement of radiolabeled warfarin from human serum albumin site 1 in phosphate buffer at pH 7.4 at 100 uM by fluorescence spectroscopy

[12] = molecular target: T2, human serum albumin site 2; assay: in vitro; details: pH 7.4, probe dansylsarcosine
Description: Displacement of radiolabeled dansylsarcosine from human serum albumin site 2 in phosphate buffer at pH 7.4 at 100 uM by fluorescence spectroscopy

[13] = molecular target: T1, human serum albumin site 1; assay: Displacement of […] warfarin from human serum albumin site 1 in phosphate buffer at pH 7.4 at 4 uM by fluorescence spectroscopy; details: pH 7.4, probe warfarin, read-out: Activity
[14] = molecular target: T2, human serum albumin site 2; assay: Displacement of […] dansylsarcosine from human serum albumin site 2 in phosphate buffer at pH 7.4 at 4 uM by fluorescence spectroscopy; details: pH 7.4, probe dansylsarcosine, read-out: Activity

T1 sequence (P02768 whole entry): as above

| Structure (SMILES) | inhibition at 12 µM [1] | inhibition at 12 µM [2] | inhibition at 12 µM [3] | inhibition at 12 µM [4] | also measured |
| --- | --- | --- | --- | --- | --- |
| COc1ccc(Cl)cc1C(=O)NCCc1ccc(S(=O)(=O)NC(=O)NC2CCCCC2)cc1 [GLYBURIDE] | 28.6% | 33.9% | 50.7% | 62.2% | solubility at 24 h (physchem): 11 µM (≈ 5.43 µg/mL) |
| O=C(O)C[C@@H]1c2ccccc2C[C@H]1NC(=O)c1cc2cc(F)ccc2[nH]1 | – | – | – | – | logD [5]: 1.26; pKa [6]: 3.95; logP [7]: 4.71; log Ks (Albumin [8]): 5.97; log Ks (Albumin [9]): 6.11; solubility at 24 h (physchem): 1930 µM (≈ 680 µg/mL) |
| CC/C(=C(\c1ccccc1)c1ccc(OCCN(C)C)cc1)c1ccccc1 [TAMOXIFEN] | 0% | 16.3% | 0% | 62.2% | – |
| O=C1C(CC[S+]([O-])c2ccccc2)C(=O)N(c2ccccc2)N1c1ccccc1 (stereo not given) [SULFINPYRAZONE] | 35.2% | 18.6% | 44.1% | 34.2% | – |
| O=C(O)CCC[C@@H]1c2ccccc2C[C@H]1NC(=O)c1cc2cc(F)ccc2[nH]1 | – | – | – | – | logD [5]: 1.95; pKa [6]: 4.24; logP [7]: 5.11; log Ks (Albumin [8]): 5.41; log Ks (Albumin [9]): 5.41; solubility at 24 h (physchem): 86 µM (≈ 32.7 µg/mL) |
| NS(=O)(=O)c1cc(C(=O)O)c(NCc2ccco2)cc1Cl [FUROSEMIDE] | 36.2% | 19.2% | 47.3% | 49% | – |
| CCN(CC)CCN1C(=O)CN=C(c2ccccc2F)c2cc(Cl)ccc21 [FLURAZEPAM] | 0% | 4.3% | 6.3% | 2.7% | log Ks (Albumin [10]): 3.38 |
| O=c1oc2ccccc2c(O)c1Cc1c(O)c2ccccc2oc1=O [DICUMAROL] | 86.4% | 88.8% | 10.5% | 19.8% | – |
| O=C(O)CCC(=O)c1ccc(-c2ccccc2)cc1 [FENBUFEN] | 0% | 70% | 0% | 66.2% | – |
| CC(=O)CC(c1ccc([N+](=O)[O-])cc1)c1c(O)c2ccccc2oc1=O (stereo not given) [ACENOCOUMAROL] | 49.8% | 12.5% | 54.6% | 39% | – |
| O=C1NC(=O)C(c2ccccc2)(c2ccccc2)N1 [PHENYTOIN] | 4% | 0% | 9.3% | 18.8% | – |
| CN1C(C(=O)Nc2ccccn2)=C(O)c2sccc2S1(=O)=O [TENOXICAM] | 52.3% | 27.4% | 61.7% | 38.5% | – |
| NS(=O)(=O)c1cc2c(cc1Cl)N=CNS2(=O)=O [CHLOROTHIAZIDE] | 28.9% | 8% | 16% | 18.8% | – |
| Cc1onc(-c2ccccc2Cl)c1C(=O)N[C@@H]1C(=O)N2[C@@H]1SC(C)(C)[C@@H]2C(=O)O [CLOXACILLIN] | 0% | 24.1% | 5.7% | 18.1% | – |
| Cc1cc(NC(=O)C2=C(O)c3ccccc3S(=O)(=O)N2C)no1 [ISOXICAM] | 51.7% | 33.1% | 38% | 32.6% | – |
| CC(=O)Nc1nc(C)c(-c2cnc(F)c(NS(=O)(=O)c3sc(C)nc3C)c2)s1 | – | – | – | – | pKa [6]: 4.71; log Ks (Albumin [8]): 5.88; log Ks (Albumin [9]): 5.62; solubility at 24 h (physchem): > 1700 µM; inhibition at 100 µM [11]: 6%; inhibition at 100 µM [12]: 7% |
| N[C@@H](Cc1c[nH]c2ccccc12)C(=O)O [TRYPTOPHAN] | 0% | 15.3% | 0% | 15.1% | – |
| CC(C)NCC(O)COc1cccc2[nH]ccc12 (stereo not given) [PINDOLOL] | 0% | 0.2% | 0% | 9.5% | log Ks (Albumin [10]): 2.65 |
| CCCNC(=O)NS(=O)(=O)c1ccc(Cl)cc1 [CHLORPROPAMIDE] | 19.2% | 28.5% | 18.5% | 26% | – |
| CN1C(C(=O)Nc2ccccn2)=C(O)c2ccccc2S1(=O)=O [PIROXICAM] | 6.7% | 45.5% | 53.5% | 44.8% | – |
| O=C1CN=C(c2ccccc2Cl)c2cc([N+](=O)[O-])ccc2N1 [CLONAZEPAM] | 0% | 16.2% | 3.8% | 19.5% | – |
| CN(C)c1cccc2c(S(=O)(=O)N(C)CC(=O)O)cccc12 [DANSYLSARCOSINE] | – | – | – | – | log Ks (Albumin [10]): 5.39 |
| O=C(O)c1ccccc1Nc1cccc(C(F)(F)F)c1 [FLUFENAMIC ACID] | 48.6% | 95.8% | 68.6% | 91.2% | log Ks (Albumin [10]): 6.68; inhibition at 4 µM [13]: 24%; inhibition at 4 µM [14]: 73% |
| COc1ccc2cc([C@H](C)C(=O)O)ccc2c1 [NAPROXEN] | 24.7% | 91.3% | 38.8% | 79.9% | – |
